Results reported in ChEMBL document CHEMBL3826911, “Rational design and synthesis of novel anti-prostate cancer agents bearing a 3,5-bis-trifluoromethylphenyl moiety” (Bioorg Med Chem Lett, 2016).

Experiments:
HepG2 = assay: Cytotoxicity against human HepG2 cells assessed as cell viability after 72 hrs by MTT assay; format: functional, cell-based; settings: for AC50 / minimal effective concentration: HepG2, 72 h; for minimal effective concentration: read-out: MEC
[1] = Antiproliferative activity against human DU145 cells assessed as reduction in cell viability after 96 hrs by propidium iodide staining based fluorescence assay; format: functional, DU-145
[2] = Antiproliferative activity against human VCaP cells assessed as reduction in cell viability after 96 hrs by propidium iodide staining based fluorescence assay; format: functional
LNCaP = assay: Antiproliferative activity against human LNCAP cells assessed as reduction in cell viability after 96 hrs by propidium iodide staining based fluorescence assay; format: functional
CWR22R = assay: Antiproliferative activity against human 22Rv1 cells assessed as reduction in cell viability after 96 hrs by propidium iodide staining based fluorescence assay; format: functional
Albumin = Albumin (Homo sapiens, UniProt P02768); assay: Binding affinity to human serum albumin at 5 uM by equilibrium dialysis based LC-MS/MS analysis; format: ADME; settings: read-out: PB (converted)
[3] = Half life in human liver microsomes at 3 uM in presence of NADPH by LC-MS/MS analysis; format: ADME
hERG (KCNH2) = hERG (KCNH2) (Homo sapiens, UniProt Q12809); assay: Inhibition of human ERG transfected in CHO cells assessed as blockade of tail current at 25 uM by patch clamp assay; format: cell-based; settings: CHO cells transfected with human ERG
[4] = Homo sapiens, DU-145, 96 h, read-out: IC50
[5] = Homo sapiens, VCaP, 96 h, read-out: IC50
[6] = Homo sapiens, LNCaP, 96 h, read-out: IC50
[7] = Homo sapiens, 22Rv1, 96 h, read-out: IC50

Sequence of Albumin (P02768 whole entry): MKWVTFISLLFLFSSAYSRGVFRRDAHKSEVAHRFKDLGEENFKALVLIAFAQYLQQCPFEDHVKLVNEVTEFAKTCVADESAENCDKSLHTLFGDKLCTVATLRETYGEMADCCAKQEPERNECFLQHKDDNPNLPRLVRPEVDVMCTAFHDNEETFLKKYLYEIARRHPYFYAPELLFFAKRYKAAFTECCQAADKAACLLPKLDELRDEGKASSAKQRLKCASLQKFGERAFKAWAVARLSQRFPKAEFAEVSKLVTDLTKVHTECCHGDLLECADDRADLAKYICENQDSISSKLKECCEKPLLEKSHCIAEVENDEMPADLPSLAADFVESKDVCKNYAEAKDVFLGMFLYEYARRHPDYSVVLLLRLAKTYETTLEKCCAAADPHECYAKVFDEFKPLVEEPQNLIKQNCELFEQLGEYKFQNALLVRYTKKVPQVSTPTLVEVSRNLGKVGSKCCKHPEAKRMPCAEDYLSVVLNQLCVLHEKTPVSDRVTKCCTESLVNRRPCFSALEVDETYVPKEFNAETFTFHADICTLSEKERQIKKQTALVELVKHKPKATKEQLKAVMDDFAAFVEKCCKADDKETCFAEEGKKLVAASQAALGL
Sequence of hERG (KCNH2) (Q12809 whole entry): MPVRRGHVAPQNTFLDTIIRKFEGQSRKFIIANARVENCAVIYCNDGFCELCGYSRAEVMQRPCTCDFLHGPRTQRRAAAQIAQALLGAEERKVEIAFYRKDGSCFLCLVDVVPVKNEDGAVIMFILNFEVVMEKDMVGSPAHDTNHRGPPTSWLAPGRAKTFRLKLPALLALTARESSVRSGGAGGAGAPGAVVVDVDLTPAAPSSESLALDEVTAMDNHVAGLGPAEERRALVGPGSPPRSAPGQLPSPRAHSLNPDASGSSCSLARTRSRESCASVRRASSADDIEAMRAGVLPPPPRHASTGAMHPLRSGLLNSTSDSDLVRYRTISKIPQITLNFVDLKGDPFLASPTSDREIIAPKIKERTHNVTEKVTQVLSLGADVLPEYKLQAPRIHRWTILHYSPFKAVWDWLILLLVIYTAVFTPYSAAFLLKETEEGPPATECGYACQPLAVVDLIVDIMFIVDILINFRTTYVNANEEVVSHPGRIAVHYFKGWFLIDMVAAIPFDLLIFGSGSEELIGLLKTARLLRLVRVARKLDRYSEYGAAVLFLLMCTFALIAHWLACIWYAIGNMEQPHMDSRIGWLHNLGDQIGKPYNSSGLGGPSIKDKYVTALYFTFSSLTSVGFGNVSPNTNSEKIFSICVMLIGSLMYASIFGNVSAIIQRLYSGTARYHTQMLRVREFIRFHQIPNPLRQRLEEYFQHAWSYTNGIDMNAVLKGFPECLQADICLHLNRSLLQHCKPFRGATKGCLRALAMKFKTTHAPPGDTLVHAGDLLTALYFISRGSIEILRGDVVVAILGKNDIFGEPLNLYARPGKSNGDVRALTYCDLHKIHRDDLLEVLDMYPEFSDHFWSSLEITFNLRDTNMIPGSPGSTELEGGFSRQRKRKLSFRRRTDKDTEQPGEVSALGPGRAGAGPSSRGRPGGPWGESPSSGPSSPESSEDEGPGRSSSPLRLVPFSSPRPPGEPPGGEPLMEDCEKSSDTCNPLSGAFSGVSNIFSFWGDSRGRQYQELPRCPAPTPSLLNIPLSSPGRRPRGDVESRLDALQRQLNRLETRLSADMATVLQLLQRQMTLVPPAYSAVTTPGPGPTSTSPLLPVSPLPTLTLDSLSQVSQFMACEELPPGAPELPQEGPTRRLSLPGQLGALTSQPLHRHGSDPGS

| SMILES | Activity (HepG2) | IC50 [1, 4] | IC50 [2, 5] | IC50 (LNCaP; [6]) | IC50 (CWR22R; [7]) | fraction unbound at 5 µM (Albumin) | half-life at 3 µM [3] | inhibition at 25 µM (hERG (KCNH2)) | IC50 ([1]; du-145) | IC50 ([2]; vcap) | IC50 (LNCaP; lncap) | IC50 (CWR22R; cwr22r) | AC50 (HepG2) | minimal effective concentration (HepG2) |
| --- | --- | --- | --- | --- | --- | --- | --- | --- | --- | --- | --- | --- | --- | --- |
| CC(O)(CS(=O)(=O)c1ccc(F)cc1)C(=O)Nc1ccc(C#N)c(C(F)(F)F)c1 (configuration not stated) | Dose-dependent effect |  |  |  |  |  |  |  |  |  |  |  |  |  |
| CNC(=O)c1ccc(N2C(=S)N(c3cc(C(F)(F)F)cc(C(F)(F)F)c3)C(=O)C2(C)C)cc1 | Dose-dependent effect | 47.9 µM | 19.8 µM | 11.3 µM | 26.4 µM |  |  |  |  |  |  |  |  |  |
| CC(O)(COc1cc(C(F)(F)F)cc(C(F)(F)F)c1)C(=O)Nc1ccc(C#N)c(C(F)(F)F)c1 (configuration not stated) | Dose-dependent effect | 4.7 µM | 2.47 µM | 3.01 µM | 2.64 µM | 0.053 | 32.2 h | 7.64% |  |  |  |  |  |  |
| CC(O)(COc1cc(C(F)(F)F)cc(C(F)(F)F)c1)C(=O)Nc1ccc([N+](=O)[O-])cc1C(F)(F)F (configuration not stated) | Dose-dependent effect | 11.6 µM | 23.7 µM | 24 µM | 16.1 µM |  |  |  |  |  |  |  |  |  |
| CC(O)(CS(=O)(=O)c1cc(C(F)(F)F)cc(C(F)(F)F)c1)C(=O)Nc1ccc(C#N)cc1C(F)(F)F (configuration not stated) | Dose-dependent effect |  |  |  |  |  |  |  | ND(Insoluble) | ND(Insoluble) | ND(Insoluble) | ND(Insoluble) |  |  |
| CNC(=O)c1ccc(N2C(=S)N(c3ccc(C#N)c(C(F)(F)F)c3)C(=O)C2(C)C)cc1F [ENZALUTAMIDE] | Dose-dependent effect | 32.3 µM | 53 µM | 11.5 µM |  |  |  |  |  |  |  |  |  |  |
| CC(O)(CSc1ccccc1OC(F)(F)F)C(=O)Nc1cc(C(F)(F)F)cc(C(F)(F)F)c1 (configuration not stated) | Dose-dependent effect | 6.41 µM | 2.9 µM | 2.91 µM | 2.94 µM |  |  |  |  |  |  |  |  |  |
| CC(O)(CSc1cccc(C(F)(F)F)c1)C(=O)Nc1cc(C(F)(F)F)cc(C(F)(F)F)c1 (configuration not stated) | Dose-dependent effect | 10 µM | 9.86 µM | 8.75 µM | 9.67 µM |  |  |  |  |  |  |  |  |  |
| CC(O)(CS(=O)(=O)c1ccccc1OC(F)(F)F)C(=O)Nc1cc(C(F)(F)F)cc(C(F)(F)F)c1 (configuration not stated) | Dose-dependent effect | 12.9 µM | 9.95 µM | 8.02 µM | 8.99 µM | 0.217 | 4.83 h | 13.4% |  |  |  |  |  |  |
| CC(O)(COc1cc(C(F)(F)F)cc(C(F)(F)F)c1)C(=O)Nc1ccc(C(F)(F)F)cc1 (configuration not stated) | Dose-dependent effect | 9.23 µM | 4.15 µM | 3.35 µM | 8.49 µM |  |  |  |  |  |  |  |  |  |
| CC(O)(CS(=O)(=O)c1cccc(C(F)(F)F)c1)C(=O)Nc1cc(C(F)(F)F)cc(C(F)(F)F)c1 (configuration not stated) | Dose-dependent effect | 11.5 µM | 9.98 µM | 9.5 µM | 10.3 µM |  |  |  |  |  |  |  |  |  |
| CC(O)(CS(=O)(=O)c1ccccc1C(F)(F)F)C(=O)Nc1cc(C(F)(F)F)cc(C(F)(F)F)c1 (configuration not stated) | Dose-dependent effect | 11 µM | 8.55 µM | 8.51 µM | 9.45 µM |  |  |  |  |  |  |  |  |  |
| CC(O)(CSc1cc(C(F)(F)F)cc(C(F)(F)F)c1)C(=O)Nc1ccc([N+](=O)[O-])cc1C(F)(F)F (configuration not stated) | Dose-dependent effect | 3.38 µM | 3.52 µM | 3.11 µM | 2.29 µM |  |  |  |  |  |  |  |  |  |
| CC(O)(CSc1cccc(OC(F)(F)F)c1)C(=O)Nc1cc(C(F)(F)F)cc(C(F)(F)F)c1 (configuration not stated) | Dose-dependent effect | 9.61 µM | 9.29 µM | 7.76 µM | 6.42 µM |  |  |  |  |  |  |  |  |  |
| C[C@](O)(CSc1cc(C(F)(F)F)cc(C(F)(F)F)c1)C(=O)Nc1ccc(C#N)c(C(F)(F)F)c1 |  | 2.66 µM | 0.84 µM | 0.79 µM | 1.13 µM |  | 0.108 h |  |  |  |  |  | 2.35 µM | 1.22 µM |
| CC1(C)C(=O)N(c2ccc(C#N)c(C(F)(F)F)c2)C(=S)N1c1cc(C(F)(F)F)cc(C(F)(F)F)c1 | Dose-dependent effect |  |  |  |  |  |  |  | ND(Insoluble) | ND(Insoluble) | ND(Insoluble) | ND(Insoluble) |  |  |
| CC(O)(CSc1ccccc1C(F)(F)F)C(=O)Nc1cc(C(F)(F)F)cc(C(F)(F)F)c1 (configuration not stated) | Dose-dependent effect | 8.66 µM | 3.84 µM | 3.57 µM | 4.37 µM |  |  |  |  |  |  |  |  |  |
| CC(O)(CS(=O)(=O)c1cc(C(F)(F)F)cc(C(F)(F)F)c1)C(=O)Nc1ccc([N+](=O)[O-])cc1C(F)(F)F (configuration not stated) | Dose-dependent effect | 3.05 µM | 7.11 µM | 3.09 µM | 2.41 µM |  |  |  |  |  |  |  |  |  |
| CN(C)CCCN1c2ccccc2Sc2ccc(Cl)cc21 [CHLORPROMAZINE] |  |  |  |  |  |  |  |  |  |  |  |  | 7.62 µM | 2.07 µM |
| CC(O)(CSc1cc(C(F)(F)F)cc(C(F)(F)F)c1)C(=O)Nc1ccc(C#N)c(C(F)(F)F)c1 (configuration not stated) | Dose-dependent effect | 2.85 µM | 2.73 µM | 2.34 µM | 1.9 µM |  |  |  |  |  |  |  |  |  |
| CC(O)(COc1cc(C(F)(F)F)cc(C(F)(F)F)c1)C(=O)Nc1ccc([N+](=O)[O-])c(C(F)(F)F)c1 (configuration not stated) | Dose-dependent effect | 2.9 µM | 1.66 µM | 0.99 µM | 1.09 µM |  |  |  |  |  |  |  |  |  |
| CC(O)(CSc1cc(C(F)(F)F)cc(C(F)(F)F)c1)C(=O)Nc1ccc(C(F)(F)F)cc1 (configuration not stated) | Dose-dependent effect | 16.4 µM | 9.88 µM | 9.61 µM | 9.75 µM |  |  |  |  |  |  |  |  |  |
| CC(O)(CS(=O)(=O)c1cccc(OC(F)(F)F)c1)C(=O)Nc1cc(C(F)(F)F)cc(C(F)(F)F)c1 (configuration not stated) | Dose-dependent effect | 14.1 µM | 9.99 µM | 9.34 µM | 12.8 µM |  |  |  |  |  |  |  |  |  |
| CC(O)(COc1cc(C(C)(C)C)cc(C(C)(C)C)c1)C(=O)Nc1ccc(C#N)c(C(F)(F)F)c1 (configuration not stated) | Dose-dependent effect | 3.15 µM | 2.98 µM | 2.67 µM | 2.27 µM |  |  |  |  |  |  |  |  |  |
| CC(O)(CS(=O)(=O)c1cc(C(F)(F)F)cc(C(F)(F)F)c1)C(=O)Nc1ccc(C#N)c(C(F)(F)F)c1 (configuration not stated) | Dose-dependent effect | 5.58 µM | 6.21 µM | 2.86 µM | 3.11 µM |  |  |  |  |  |  |  |  |  |
| CC1(C)C(=O)N(c2ccc([N+](=O)[O-])c(C(F)(F)F)c2)C(=S)N1c1cc(C(F)(F)F)cc(C(F)(F)F)c1 | Dose-dependent effect | 18.1 µM | 28.4 µM | 9.93 µM | 20.2 µM |  |  |  |  |  |  |  |  |  |
| CC(O)(CSc1cc(C(F)(F)F)cc(C(F)(F)F)c1)C(=O)Nc1ccc(C#N)cc1C(F)(F)F (configuration not stated) | Dose-dependent effect | 9.09 µM | 6.65 µM | 7.76 µM | 4.65 µM |  |  |  |  |  |  |  |  |  |
| CC1(C)C(=O)N(c2ccc(C#N)cc2C(F)(F)F)C(=S)N1c1cc(C(F)(F)F)cc(C(F)(F)F)c1 | Dose-dependent effect |  |  |  |  |  |  |  | ND(Insoluble) | ND(Insoluble) | ND(Insoluble) | ND(Insoluble) |  |  |
| N#CC(C#N)=NNc1cccc(Cl)c1 [CARBONYL CYANIDE M-CHLOROPHENYLHYDRAZONE] |  |  |  |  |  |  |  |  |  |  |  |  | 8.28 µM | 3.25 µM |
| CC(O)(COc1cc(C(F)(F)F)cc(C(F)(F)F)c1)C(=O)Nc1ccc(C#N)cc1C(F)(F)F (configuration not stated) | Dose-dependent effect | 8.05 µM | 4.77 µM | 3.56 µM | 4.07 µM |  |  |  |  |  |  |  |  |  |
